Measured values reported in ChEMBL document CHEMBL1130731, “Methyloxime-substituted aminopyrrolidine: a new surrogate for 7-basic group of quinolone” (Bioorg Med Chem Lett, 1998).
≈ marks a conversion by molar mass, not a printed value.

Assays:
[1] = tested on: Escherichia coli; assay: In vitro antimicrobial activity against Escherichia coli 3190Y; format: functional
[2] = tested on: Staphylococcus epidermidis; assay: In vitro antimicrobial activity against Staphylococcus epidermis 178; format: functional
[3] = tested on: Klebsiella aerogenes; assay: In vitro antimicrobial activity against Klebsiella aerogenes 1076E; format: functional
[4] = tested on: Staphylococcus aureus; assay: In vitro antimicrobial activity against Staphylococcus aureus giorgio; format: functional
[5] = tested on: Micrococcus luteus; assay: In vitro antimicrobial activity against Micrococcus luteus ATCC 9341; format: functional
[6] = tested on: Escherichia coli; assay: In vitro antimicrobial activity against Escherichia coli TEM5 3739E; format: functional
[7] = tested on: Staphylococcus epidermidis; assay: In vitro antimicrobial activity against Staphylococcus epidermis 887E; format: functional
[8] = tested on: Bacillus subtilis; assay: In vitro antimicrobial activity against Bacillus subtilis ATCC 6633; format: functional
[9] = tested on: Acinetobacter calcoaceticus; assay: In vitro antimicrobial activity against Acinetobacter calcoaceticus 15473; format: functional
[10] = tested on: Escherichia coli; assay: In vitro antimicrobial activity against Escherichia coli 10536
[11] = tested on: Staphylococcus aureus; assay: In vitro antimicrobial activity against Staphylococcus aureus 77; format: functional
[12] = tested on: Pseudomonas aeruginosa; assay: In vitro antimicrobial activity against Pseudomonas aeruginosa 1012E; format: functional
[13] = tested on: Enterobacter cloacae; assay: In vitro antimicrobial activity against Enterobacter cloacae p99; format: functional
[14] = tested on: Citrobacter koseri; assay: In vitro antimicrobial activity against Citrobacter diversus 2046E; format: functional
[15] = tested on: Escherichia coli; assay: In vitro antimicrobial activity against Escherichia coli 851E; format: functional
[16] = tested on: Staphylococcus aureus; assay: In vitro antimicrobial activity against Staphylococcus aureus 241; format: functional
[17] = tested on: Salmonella typhimurium; assay: In vitro antimicrobial activity against Salmonella Typhimurium 14028; format: functional, Salmonella enterica subsp. enterica serovar Typhimurium; conditions: Salmonella enterica
[18] = tested on: Escherichia coli; assay: In vitro antimicrobial activity against Escherichia coli 10536; format: functional
[19] = tested on: Mus musculus; assay: In vivo efficacy against systemic infection of Staphylococcus aureus giorgio in mouse; format: functional
[20] = Bioavailability in rat (dose 20 mg/kg p.o.); format: ADME, organism-based; conditions: in vivo, po
[21] = Bioavailability in dog (dose 4 mg/kg p.o.); format: ADME, organism-based, Canis lupus familiaris; conditions: in vivo, po
[22] = Half-life after administration of 20 mg/Kg oral dose in rat; format: ADME, organism-based; conditions: in vivo
[23] = AUC value after administration of 20 mg/Kg oral dose in rat; format: ADME, organism-based; conditions: plasma
[24] = in vivo; conditions: dog, po, 4 mg/kg
[25] = tested on: Mus musculus; assay: In vivo efficacy against systemic infection of Pseudomonas aeruginosa 1912E in mouse; format: functional
[26] = Cmax value after administration of 20 mg/Kg oral dose in rat; format: ADME, organism-based; parameters: dose 20 mg/Kg, route oral; conditions: in vivo
[27] = Tmax value after administration of 4 mg/Kg oral dose in dog; format: ADME, organism-based, Canis lupus familiaris; conditions: in vivo
[28] = Half-life after administration of 4 mg/Kg oral dose in dog; conditions: in vivo
[29] = Tmax value after administration of 20 mg/Kg oral dose in rat; format: ADME, organism-based; conditions: in vivo
[30] = in vivo; conditions: dog, po, 4 mg/kg; remark: listed apart in the source

| MIC [1] [µg/mL] | MIC [2] [µg/mL] | MIC [3] [µg/mL] | MIC [4] [µg/mL] | MIC [5] [µg/mL] | MIC [6] [µg/mL] | MIC [7] [µg/mL] | MIC [8] [µg/mL] | MIC [9] [µg/mL] | MIC [11] [µg/mL] | MIC [12] [µg/mL] | MIC [13] [µg/mL] | MIC [14] [µg/mL] | MIC [15] [µg/mL] | MIC [16] [µg/mL] | MIC [17] [µg/mL] | MIC [18] [µg/mL] | SMILES | other results |
| --- | --- | --- | --- | --- | --- | --- | --- | --- | --- | --- | --- | --- | --- | --- | --- | --- | --- | --- |
| ≤ 0.008 | 0.5 (≈ 1.22 µM) | 0.25 (≈ 0.612 µM) | 0.016 (≈ 0.0391 µM) | 0.13 (≈ 0.318 µM) | 0.25 (≈ 0.612 µM) | 0.016 (≈ 0.0391 µM) | ≤ 0.008 | 0.031 (≈ 0.0758 µM) | 0.016 (≈ 0.0391 µM) | 2 (≈ 4.89 µM) | 0.016 (≈ 0.0391 µM) | 0.063 (≈ 0.154 µM) | 0.031 (≈ 0.0758 µM) | 0.5 (≈ 1.22 µM) | 0.13 (≈ 0.318 µM) |  | CO/N=C1/CN(c2c(F)cc3c(=O)c(C(=O)O)cn(C4CC4)c3c2Cl)CC1N (stereo not drawn) | MIC [10]: 0.016 µg/mL (≈ 0.0391 µM) |
| ≤ 0.008 | 2 (≈ 4.91 µM) | 0.25 (≈ 0.614 µM) | ≤ 0.008 | 0.5 (≈ 1.23 µM) | 0.13 (≈ 0.319 µM) | 0.016 (≈ 0.0393 µM) | ≤ 0.008 | 0.031 (≈ 0.0761 µM) | 0.031 (≈ 0.0761 µM) | 1 (≈ 2.45 µM) | ≤ 0.008 | 0.063 (≈ 0.155 µM) | 0.031 (≈ 0.0761 µM) | 2 (≈ 4.91 µM) | 0.063 (≈ 0.155 µM) | ≤ 0.008 | CO/N=C1\CN(c2c(F)c(N)c3c(=O)c(C(=O)O)cn(C4CC4)c3c2F)CC1N (stereo not drawn) |  |
| 0.016 (≈ 0.0377 µM) | 2 (≈ 4.71 µM) | 0.25 (≈ 0.589 µM) | 0.031 (≈ 0.073 µM) | 0.25 (≈ 0.589 µM) | 0.25 (≈ 0.589 µM) | 0.063 (≈ 0.148 µM) | 0.016 (≈ 0.0377 µM) | 0.13 (≈ 0.306 µM) | 0.063 (≈ 0.148 µM) | 2 (≈ 4.71 µM) | 0.016 (≈ 0.0377 µM) | 0.13 (≈ 0.306 µM) | 0.031 (≈ 0.073 µM) | 2 (≈ 4.71 µM) | 0.13 (≈ 0.306 µM) | 0.031 (≈ 0.073 µM) | NC1CN(c2c(F)cc3c(=O)c(C(=O)O)cn(C4CC4)c3c2F)C/C1=N\OCCF (stereo not drawn) |  |

Second part, the molecule before the results:

| SMILES | MIC [1] [µg/mL] | MIC [2] [µg/mL] | MIC [3] [µg/mL] | MIC [4] [µg/mL] | MIC [5] [µg/mL] | MIC [6] [µg/mL] | MIC [7] [µg/mL] | MIC [8] [µg/mL] | MIC [9] [µg/mL] | MIC [11] [µg/mL] | MIC [12] [µg/mL] | MIC [13] [µg/mL] | MIC [14] [µg/mL] | MIC [15] [µg/mL] | MIC [16] [µg/mL] | MIC [17] [µg/mL] | MIC [18] [µg/mL] | other results |
| --- | --- | --- | --- | --- | --- | --- | --- | --- | --- | --- | --- | --- | --- | --- | --- | --- | --- | --- |
| CO/N=C1\CN(c2nc3c(cc2F)c(=O)c(C(=O)O)cn3C2CC2)CC1N (stereo not drawn) | ≤ 0.008 | 8 (≈ 21.3 µM) | 0.25 (≈ 0.666 µM) | 0.063 (≈ 0.168 µM) | 1 (≈ 2.66 µM) | 1 (≈ 2.66 µM) | 0.063 (≈ 0.168 µM) | ≤ 0.008 | 0.063 (≈ 0.168 µM) | 0.063 (≈ 0.168 µM) | 2 (≈ 5.33 µM) | 0.016 (≈ 0.0426 µM) | 0.063 (≈ 0.168 µM) | 0.063 (≈ 0.168 µM) | 8 (≈ 21.3 µM) | 0.13 (≈ 0.346 µM) | ≤ 0.008 |  |
| C=CCO/N=C1\CN(c2c(F)cc3c(=O)c(C(=O)O)cn(C4CC4)c3c2F)CC1N (stereo not drawn) | ≤ 0.008 | 2 (≈ 4.78 µM) | 0.25 (≈ 0.598 µM) | 0.016 (≈ 0.0382 µM) | 0.25 (≈ 0.598 µM) | 0.5 (≈ 1.2 µM) | 0.016 (≈ 0.0382 µM) | ≤ 0.008 | 0.031 (≈ 0.0741 µM) | 0.031 (≈ 0.0741 µM) | 2 (≈ 4.78 µM) | 0.031 (≈ 0.0741 µM) | 0.13 (≈ 0.311 µM) | 0.063 (≈ 0.151 µM) | 2 (≈ 4.78 µM) | 0.25 (≈ 0.598 µM) | 0.031 (≈ 0.0741 µM) |  |
| CNC1CN(c2nc3c(cc2F)c(=O)c(C(=O)O)cn3C2CC2)C/C1=N\OC (stereo not drawn) | ≤ 0.008 | 32 (≈ 82.2 µM) | 0.5 (≈ 1.28 µM) | 0.031 (≈ 0.0796 µM) | 2 (≈ 5.14 µM) | 1 (≈ 2.57 µM) | 0.063 (≈ 0.162 µM) | ≤ 0.008 | 0.13 (≈ 0.334 µM) | 0.063 (≈ 0.162 µM) | 4 (≈ 10.3 µM) | ≤ 0.008 | 0.13 (≈ 0.334 µM) | 0.063 (≈ 0.162 µM) | 16 (≈ 41.1 µM) | 0.25 (≈ 0.642 µM) | ≤ 0.008 |  |
| CO/N=C1\CN(c2c(F)cc3c(=O)c(C(=O)O)cn(C4CC4)c3c2F)CC1N (stereo not drawn) | ≤ 0.008 | 2 (≈ 5.1 µM) | 0.13 (≈ 0.331 µM) | ≤ 0.008 | 0.13 (≈ 0.331 µM) | 0.25 (≈ 0.637 µM) | 0.016 (≈ 0.0408 µM) | ≤ 0.008 | 0.016 (≈ 0.0408 µM) | 0.016 (≈ 0.0408 µM) | 1 (≈ 2.55 µM) | ≤ 0.008 | 0.063 (≈ 0.161 µM) | 0.031 (≈ 0.079 µM) | 2 (≈ 5.1 µM) | 0.063 (≈ 0.161 µM) | ≤ 0.008 | ED50 [19]: 0.87 mg/kg; bioavailability [20]: > 100%; bioavailability [21]: > 100%; half-life [22]: 311 min; AUC [23]: 179000 ng·h/mL; AUC ([24]; plasma): 12900 ng·h/mL; ED50 [25]: 9.69 mg/kg; Cmax [26]: 22800 ng/mL; Tmax [27]: 13.8 min; half-life [28]: 140 min; Tmax [29]: 10.8 min; Cmax [30]: 3440 ng/mL |
| CO/N=C1/CN(c2cc3c(cc2F)c(=O)c(C(=O)O)cn3C2CC2)CC1N (stereo not drawn) | ≤ 0.008 | 16 (≈ 42.7 µM) | 0.25 (≈ 0.668 µM) | 0.016 (≈ 0.0427 µM) | 0.25 (≈ 0.668 µM) | 0.5 (≈ 1.34 µM) | 0.031 (≈ 0.0828 µM) | ≤ 0.008 | 0.031 (≈ 0.0828 µM) | 0.031 (≈ 0.0828 µM) | 1 (≈ 2.67 µM) | ≤ 0.008 | 0.031 (≈ 0.0828 µM) | 0.031 (≈ 0.0828 µM) | 32 (≈ 85.5 µM) | 0.13 (≈ 0.347 µM) | 0.016 (≈ 0.0427 µM) |  |
| NC1CN(c2c(F)cc3c(=O)c(C(=O)O)cn(C4CC4)c3c2F)C/C1=N\O (stereo not drawn) | ≤ 0.008 | 64 (≈ 169 µM) | 0.5 (≈ 1.32 µM) | 0.063 (≈ 0.167 µM) | 0.25 (≈ 0.661 µM) | 0.5 (≈ 1.32 µM) | 0.13 (≈ 0.344 µM) | 0.063 (≈ 0.167 µM) | 0.5 (≈ 1.32 µM) | 0.063 (≈ 0.167 µM) | 1 (≈ 2.64 µM) | 0.031 (≈ 0.0819 µM) | 0.13 (≈ 0.344 µM) | 0.031 (≈ 0.0819 µM) | 32 (≈ 84.6 µM) | 0.63 (≈ 1.67 µM) | 0.016 (≈ 0.0423 µM) |  |
| O=C(O)c1cn(C2CC2)c2cc(N3CCNCC3)c(F)cc2c1=O [CIPROFLOXACIN] | ≤ 0.008 | 128 (≈ 386 µM) | 0.13 (≈ 0.392 µM) | 0.25 (≈ 0.754 µM) | 4 (≈ 12.1 µM) | 0.13 (≈ 0.392 µM) | 0.13 (≈ 0.392 µM) | 0.031 (≈ 0.0936 µM) | 0.25 (≈ 0.754 µM) | 0.25 (≈ 0.754 µM) | 0.13 (≈ 0.392 µM) |  | 0.016 (≈ 0.0483 µM) |  | 128 (≈ 386 µM) | 0.031 (≈ 0.0936 µM) | ≤ 0.008 | ED50 [19]: 7.46 mg/kg; AUC [23]: 2590 ng·h/mL; AUC ([24]; in vivo): 4540 ng·h/mL; ED50 [25]: 3.11 mg/kg; Cmax [26]: 900 ng/mL; Tmax [27]: 67.2 min; Tmax [29]: 6.6 min; Cmax [30]: 910 ng/mL |
